Several values for one entry are separate records, joined by “and”; a condition that tells them apart may be missing. Equal entries are not always repeated.
Experiments:
[1] = Lipid peroxidation assay (FeCl2/H2O2-stimulated linoleic acid peroxidation); type: biochemical; conditions: mean ± SEM of three experiments
[2] = DPPH radical scavenging assay; type: biochemical; conditions: mean ± SEM of three experiments
Experimental: The antioxidant potential of all target compounds (3–9) was determined using DPPH radical scavenging assay in comparison with ascorbic acid (AA) as the control treatment.
The mechanism of antioxidants as DPPH radical scavengers is based on their hydrogen-donation ability as hydrogen atoms or an electron transfer from the compound to the DPPH to form DPPH-H. The results of DPPH reduction are presented in Table 2, Figure 7.
The DPPH scavenging activity of all novel synthesized compounds (3–9) was measured as previously described (see Supplementary Materials).
1-Biological Evaluation Details: a-In-vitro Assays for biological antioxidant Activity
- DPPH scavenging method.
A 96-well plate was filled with 100 µL of the investigated compounds at various concentrations (12.5, 25, 50, 100, and 200 µg/mL ). The plate was then incubated at room temperature for 30 min while being protected from light by adding 100 µL of 100µM DPPH methanolic solution to each well. At a λ517 nm. the solution's absorbance was measured.
The positive control was ascorbic acid, and the negative control was DMSO. According to the following equation, the percentage of DPPH scavenging activity was determined:
% of DPPH scavenging = [(A control -A sample) / A control] x100. where A control is the absorbance of the control reaction (with all reagents except the test compound), and A sample is the absorbance of the test sample. Linear regression analysis was performed to calculate drug concentration showing 50% free radical inhibition activity (IC50). All tests were performed in triplicates. […]

Soybean 15-LOX enzyme = target: T1, Soybean 15-LOX enzyme (Glycine max, UniProt P08170); assay: In vitro 15-lipoxygenase inhibition (Cayman Lipoxygenase Inhibitor Screening Assay Kit); type: biochemical; conditions: Soybean 15-LOX, arachidonic acid substrate; mean ± SEM of three experiments
T1 construct: purchased Cayman Chemical 760700
T1 sequence (P08170 1-839): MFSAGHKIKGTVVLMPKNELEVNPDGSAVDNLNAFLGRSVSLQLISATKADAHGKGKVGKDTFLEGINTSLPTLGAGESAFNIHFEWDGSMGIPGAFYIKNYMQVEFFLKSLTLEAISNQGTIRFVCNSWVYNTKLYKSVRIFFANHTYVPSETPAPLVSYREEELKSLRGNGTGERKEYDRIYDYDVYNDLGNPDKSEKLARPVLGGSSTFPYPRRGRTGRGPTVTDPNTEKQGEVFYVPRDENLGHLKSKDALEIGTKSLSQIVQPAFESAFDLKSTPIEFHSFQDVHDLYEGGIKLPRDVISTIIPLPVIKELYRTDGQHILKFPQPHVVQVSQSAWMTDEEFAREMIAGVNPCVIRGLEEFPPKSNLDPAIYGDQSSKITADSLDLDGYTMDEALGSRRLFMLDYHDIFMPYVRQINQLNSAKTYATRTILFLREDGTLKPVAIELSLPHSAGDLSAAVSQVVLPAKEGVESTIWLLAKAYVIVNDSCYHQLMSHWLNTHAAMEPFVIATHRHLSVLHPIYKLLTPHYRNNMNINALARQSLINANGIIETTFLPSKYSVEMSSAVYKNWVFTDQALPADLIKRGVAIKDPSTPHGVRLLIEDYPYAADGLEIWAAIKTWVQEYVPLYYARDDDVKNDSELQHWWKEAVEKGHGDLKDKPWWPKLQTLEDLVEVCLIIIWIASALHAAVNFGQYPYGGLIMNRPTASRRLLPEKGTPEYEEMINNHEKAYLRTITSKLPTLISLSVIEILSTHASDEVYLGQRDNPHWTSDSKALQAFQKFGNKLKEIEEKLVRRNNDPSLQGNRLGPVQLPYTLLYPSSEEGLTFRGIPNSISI
Experimental: 90 µL of 15-LOX was pipetted into a 96-well plate quickly. The test chemical was then dissolved in DMSO in 10 µL portions at concentrations of 2.5 µM, 5.0 µM, and 10 µM and added to each well. Arachidonic acid, a 110 µL substrate, was added to start the reaction, and the plate was shaken for at least five minutes. In order to interrupt enzyme catalysis and advance the reaction, 100 µL of chromogen was added to each well and made in accordance with the manufacturer’s instructions. In blank wells, 100 µL of assay buffer (0.1 M Tris-HCl, pH 7.4) was utilized. […] The solution’s absorbance was determined at λ 490–500 nm. The percentage inhibition was calculated according to the following equation:% inhibition = [(IA − Ainhibitor sample)/IA] × 100(1) where (IA) is the 100% initial activity and (Ainhibitor sample) is the absorbance of the test sample. A dose-response curve was plotted between % inhibition and the drug concentration. The non-linear dose-response curve was used for calculating drug concentration showing 50% enzyme inhibition.

[3] = Hydrogen peroxide scavenging assay; type: biochemical; conditions: mean ± SEM of three experiments
Experimental: H2O2 assay is used to estimate the scavenging power of the target compounds (4–9) to H2O2.
The hydrogen peroxide (H2O2) scavenging activity of all novel synthesized compounds 3–9 was measured as previously reported (see Supplementary Materials).
1-Biological Evaluation Details: a-In-vitro Assays for biological antioxidant Activity […]
Linear regression analysis was performed to calculate drug concentration showing 50% free radical inhibition activity (IC50). All tests were performed in triplicates.
-Scavenging of hydrogen peroxide
In this method, the decay or loss of hydrogen peroxide can be quantified spectrophotometrically at 230 nm when a scavenger is incubated with it. The procedure was applied with a few changes. In phosphate buffered saline, hydrogen […]
peroxide (20 mM) solution was prepared in phosphate buffered saline (PBS, pH 7.4). In order to make different concentrations of 1 ml of the tested substances (3–9) or standards in methanol, 2 ml of hydrogen peroxide solution in PBS was added. After 10 minutes, the absorbance of H2O2 was measured at 230 nm in comparison to an ascorbic acid (AA) reference solution that contained phosphate buffer but no H2O2.
% of H2O2 scavenging = [(A control -A sample) / A control] x100. […]

Structure (SMILES)	melting point [°C]	Lipid Peroxidation IC50 [1] [µg/mL]	DPPH IC50 [2]	IC50 (Soybean 15-LOX enzyme) [µM]	H2O2 IC50 [3] [µg/mL]
CNC(=S)NN=C(C)c1cccc(NS(=O)(=O)c2c[nH]c(=S)[nH]c2=O)c1 [Compound 5a, N-{3-[(1E)-N-(methylcarbamothionyl)ethanhydrazonoyl]phenyl}-4-oxo-2-thioxo-1,2,3,4-tetrahydropyrimidine-5-sulfonamide]	305 to 307	90.0 ± 1.45	14.50 ± 0.72 µg/mL	5.79 ± 0.01	41.0 ± 1.53
CCNC(=S)NN=C(C)c1cccc(NS(=O)(=O)c2c[nH]c(=S)[nH]c2=O)c1 [Compound 5b, N-{3-[(1E)-N-(ethylcarbamothionyl)ethanhydrazonoyl]phenyl}-4-oxo-2-thioxo-1,2,3,4-tetrahydropyrimidine-5-sulfonamide]	310 to 312	85.0 ± 1.03	14.70 ± 0.22 µg/mL and 14.00 ± 0.22 µg/mL	5.7 ± 0.03	40.0 ± 1.32
COc1ccc(NC(=S)NN=C(C)c2cccc(NS(=O)(=O)c3c[nH]c(=S)[nH]c3=O)c2)cc1 [Compound 5c, N-{3-[(1E)-N-(4-methoxycarbamothionyl)ethanhydrazonoyl]phenyl}-4-oxo-2-thioxo-1,2,3,4-tetrahydropyrimidine-5-sulfonamides]	307 to 309	82.0 ± 1.40	9.0 ± 1.10 µg/mL	5.5 ± 0.02	45.05 ± 1.34
CC(=NNC(=S)Nc1ccc(F)cc1)c1cccc(NS(=O)(=O)c2c[nH]c(=S)[nH]c2=O)c1 [Compound 5d, N-{3-[(1E)-N-(4-fluorocarbamothionyl)ethanhydrazonoyl]phenyl}-4-oxo-2-thioxo-1,2,3,4-tetrahydropyrimidine-5-sulfonamides]	313 to 315	95.0 ± 1.42	14.72 ± 1.11 µg/mL	5.9 ± 0.06	47.0 ± 1.38
N#Cc1c(-c2cccc([N+](=O)[O-])c2)cc(-c2cccc(NS(=O)(=O)c3c[nH]c(=S)[nH]c3=O)c2)[nH]c1=O [Compound 6a, N-{3-[5-cyano-4-(3-nitrophenyl)-6-oxo-1,6-dihydropyridin-2-yl]phenyl}-4-oxo-2-thioxo-1,2,3,4-tetrahydropyrimidine-5-sulfonamide]	266 to 268	45.0 ± 1.52	28.0 ± 1.06 µg/mL	7.85 ± 0.01	31.0 ± 1.30
N#Cc1c(-c2cccc(Cl)c2)cc(-c2cccc(NS(=O)(=O)c3c[nH]c(=S)[nH]c3=O)c2)[nH]c1=O [Compound 6b, N-{3-[5-cyano-4-(3-chlorophenyl)-6-oxo-1,6-dihydropyridin-2-yl]phenyl}-4-oxo-2-thioxo-1,2,3,4-tetrahydropyrimidine-5-sulfonamide]	272 to 274	40.0 ± 1.63	22.0 ± 1.18 µg/mL	7.6 ± 0.05	30.0 ± 1.21
N#Cc1c(-c2cccc(F)c2)cc(-c2cccc(NS(=O)(=O)c3c[nH]c(=S)[nH]c3=O)c2)[nH]c1=O [Compound 6c, N-{3-[5-cyano-4-(3-fluorophenyl)-6-oxo-1,6-dihydropyridin-2-yl]phenyl}-4-oxo-2-thioxo-1,2,3,4-tetrahydropyrimidine-5-sulfonamide]	287 to 289	39.0 ± 1.46	21.7 ± 0.7 µg/mL	7.8 ± 0.02	29.0 ± 1.03
Cc1cccc(-c2cc(-c3cccc(NS(=O)(=O)c4c[nH]c(=S)[nH]c4=O)c3)[nH]c(=O)c2C#N)c1 [Compound 6d, N-{3-[5-cyano-4-(3-methylphenyl)-6-oxo-1,6-dihydropyridin-2-yl]phenyl}-4-oxo-2-thioxo-1,2,3,4-tetrahydropyrimidine-5-sulfonamide]	282 to 284	38.0 ± 1.42	21.0 ± 0.5 µg/mL	7.5 ± 0.04	28.8 ± 1.05
N#Cc1c(-c2cccc([N+](=O)[O-])c2)cc(-c2cccc(NS(=O)(=O)c3c[nH]c(=S)[nH]c3=O)c2)nc1N [Compound 7a, N-{3-[6-amino-5-cyano-4-(3-nitrophenyl)pyridine-2-yl]phenyl}-4-oxo-2-thioxo-1,2,3,4-tetrahydropyrimidine-5-sulfonamides]	251 to 253	37.6 ± 1.2	25.5 ± 1.16 µg/mL	6.95 ± 0.07	26.0 ± 1.28
N#Cc1c(-c2cccc(Cl)c2)cc(-c2cccc(NS(=O)(=O)c3c[nH]c(=S)[nH]c3=O)c2)nc1N [Compound 7b, N-{3-[6-amino-5-cyano-4-(3-chlorophenyl)pyridine-2-yl]phenyl}-4-oxo-2-thioxo-1,2,3,4-tetrahydropyrimidine-5-sulfonamides]	257 to 259	37.3 ± 1.3	19.50 ± 1.06 µg/mL	6.7 ± 0.01	25.0 ± 1.35
N#Cc1c(-c2cccc(F)c2)cc(-c2cccc(NS(=O)(=O)c3c[nH]c(=S)[nH]c3=O)c2)nc1N [Compound 7c, N-{3-[6-amino-5-cyano-4-(3-fluorophenyl)pyridine-2-yl]phenyl}-4-oxo-2-thioxo-1,2,3,4-tetrahydropyrimidine-5-sulfonamides]	268 to 270	36.9 ± 1.72	17.7 ± 1.4 µg/mL	6.91 ± 0.02	24.0 ± 1.40
Cc1cccc(-c2cc(-c3cccc(NS(=O)(=O)c4c[nH]c(=S)[nH]c4=O)c3)nc(N)c2C#N)c1 [Compound 7d, N-{3-[6-amino-5-cyano-4-(3-methylphenyl)pyridine-2-yl]phenyl}-4-oxo-2-thioxo-1,2,3,4-tetrahydropyrimidine-5-sulfonamides]	264 to 266	36.4 ± 1.33	17.0 ± 1.63 µg/mL	6.6 ± 0.05	23.9 ± 1.34

Source: paper PMC9963659, “Novel 2-Thiouracil-5-Sulfonamide Derivatives: Design, Synthesis, Molecular Docking, and Biological Evaluation as Antioxidants with 15-LOX Inhibition” (Molecules, 2023)
